In patent publication US7872005B2, “2-substituted heteroaryl compounds” (Synta Pharmaceuticals Corporation, priority 2004, dated 2011):

tested on: IL-12 production in human PBMC or THP-1 cells; assay: In vitro inhibition of IL-12 production in stimulated human PBMC or THP-1 cells (ELISA); type: cell-based; details: representative in vitro IC50 data
From the text: The biological activities of a heterocyclic compound can be evaluated by a number of cell-based assays. One of such assays can be conducted using cells from human peripheral blood mononuclear cells (PBMC) or human monocytic cell line (THP-1). The cells are stimulated with a combination of human interferon-γ (IFNγ) and lipopolysaccharide or a combination of IFNγ and Staphylococcus aureus Cowan I in the presence of a test compound. The level of inhibition of IL-12 production can be measured by determining the amount of p70 by using a sandwich ELISA assay with anti-human IL-12 antibodies. IC50 of the test compound can then be determined. Specifically, PBMC or THP-1 cells are incubated with the test compound. Cell viability was assessed using the bioreduction of MTS [3-(4,5-dimethylthiazol-2-yl)-5-(3-carboxymethoxyphenyl)-2-(4-sulfophenyl)-2H-tetrazolium] (Promega, Madison, Wis.).
Reagents. Staphylococcus aureus Cowan I (SAC) was obtained from Calbiochem (La Jolla, Calif.), and lipopolysaccharide (LPS, Serratia marscencens) was obtained from Sigma (St. Louis, Mo.). Human and mouse recombinant IFNγ were purchased from Boehringer Mannheim (Mannheim, Germany) and Pharmingen (San Diego, Calif.), respectively.
Human In Vitro Assay. Human PBMC were isolated by centrifugation using Ficoll-Paque (Pharmacia Biotech, Uppsala, Sweden) and prepared in RPMI medium supplemented with 10% fetal calf serum (FCS), 100 U/mL penicillin, and 100 μg/mL streptomycin. PBMC were plated in wells of a 96-well plate at a concentration of 5×10^5 cells/well, and primed by adding IFNγ (30 U/mL) for 22 h and stimulated by adding LPS (1 μg/mL), or by adding IFNγ (100 U/mL) and then stimulated by adding SAC (0.01%). A test pyrimidine compound was dissolved in DMSO, and added to wells of the 96-well plate. The final DMSO concentration was adjusted to 0.25% in all cultures, including the compound-free control. Human THP-1 cells were plated in wells, primed by adding IFNγ (100 U/mL) for 22 h and stimulated by adding SAC (0.025%) in the presence of different concentrations of the pyrimidine compound. Cell-free supernatants were taken 18 h later for measurement of cytokines. Cell viability was assessed using the bioreduction of MTS. Cell survival was estimated by determining the ratio of the absorbance in compound-treated groups versus compound-free control.
The supernatant was assayed for the amount of IL-12p40, IL-12p70, or IL-10 by using a sandwich ELISA with anti-human antibodies, i.e., a Human IL-12 p40 ELISA kit from R&D Systems (Berkeley, Calif.), and a Human IL-12 p70 or IL-10 ELISA kit from Endogen (Cambridge, Mass.). Assays were based on the manufacturer's instructions.
The biological activities of pyrimidine compounds were tested on human PBMC or THP-1 cells. Unexpectedly, some of the test compounds have IC50 values as low as <1 nM.

SMILES | IC50 [µM]
COc1cccc(NC(=O)OCCCc2nc(N/N=C/c3cccc(C)c3)cc(N3CCOCC3)n2)c1 [Compound 1, (3-Methoxy-phenyl)-carbamic acid 3-{4-[N′-(3-methyl-benzylidene)-hydrazino]-6-morpholin-4-yl-pyrimidin-2-yl}-propyl ester] | 0.025 to 0.05
Cc1cccc(/C=N/Nc2cc(N3CCOCC3)nc(CCCOC(=O)Nc3cccc(C(F)(F)F)c3)n2)c1 [Compound 2, (3-Trifluoromethyl-phenyl)-carbamic acid 3-{4-[N′-(3-methyl-benzylidene)-hydrazino]-6-morpholin-4-yl-pyrimidin-2-yl}-propyl ester] | < 0.025
Cc1ccc(NC(=O)OCCCc2nc(N/N=C/c3cccc(C)c3)cc(N3CCOCC3)n2)cc1 [Compound 3, p-Tolyl-carbamic acid 3-{4-[N′-(3-methyl-benzylidene)-hydrazino]-6-morpholin-4-yl-pyrimidin-2-yl}-propyl ester] | < 0.025
Cc1cccc(/C=N/N(C)c2cc(N3CCOCC3)nc(CCCOC(=O)Nc3cccc(C(F)(F)F)c3)n2)c1 [Compound 4, (3-Trifluoromethyl-phenyl)-carbamic acid 3-{4-[N-methyl-N′-(3-methyl-benzylidene)-hydrazino]-6-morpholin-4-yl-pyrimidin-2-yl}-propyl ester] | > 0.05
Cc1cccc(/C=N/Nc2cc(N3CCOCC3)nc(CCCOC(=O)NC3CCCCC3)n2)c1 [Compound 5, Cyclohexyl-carbamic acid 3-{4-[N′-(3-methyl-benzylidene)-hydrazino]-6-morpholin-4-yl-pyrimidin-2-yl}-propyl ester] | < 0.025
Cc1cccc(/C=N/Nc2cc(N3CCOCC3)nc(CCCOC(=O)Nc3ccccc3F)n2)c1 [Compound 6, (2-Fluoro-phenyl)-carbamic acid 3-{4-[N′-(3-methyl-benzylidene)-hydrazino]-6-morpholin-4-yl-pyrimidin-2-yl}-propyl ester] | < 0.025
Cc1cccc(/C=N/Nc2cc(N3CCOCC3)nc(CCCOC(=O)Nc3ccc([N+](=O)[O-])cc3)n2)c1 [Compound 7, (4-Nitro-phenyl)-carbamic acid 3-{4-[N′-(3-methyl-benzylidene)-hydrazino]-6-morpholin-4-yl-pyrimidin-2-yl}-propyl ester] | < 0.025
CCNC(=O)OCCCc1nc(N/N=C/c2cccc(C)c2)cc(N2CCOCC2)n1 [Compound 8, Ethyl-carbamic acid 3-{4-[N′-(3-methyl-benzylidene)-hydrazino]-6-morpholin-4-yl-pyrimidin-2-yl}-propyl ester] | < 0.025
Cc1cccc(/C=N/Nc2cc(N3CCOCC3)nc(CCCOC(=S)Nc3cccnc3)n2)c1 [Compound 9, Pyridin-3-yl-thiocarbamic acid O-(3-{4-[N′-(3-methyl-benzylidene)-hydrazino]-6-morpholin-4-yl-pyrimidin-2-yl}-propyl) ester] | < 0.025
Cc1cccc(/C=N/Nc2cc(N3CCOCC3)nc(CCCOC(=O)Nc3cccc4ccccc34)n2)c1 [Compound 10, Naphthalen-1-yl-carbamic acid 3-{4-[N′-(3-methyl-benzylidene)-hydrazino]-6-morpholin-4-yl-pyrimidin-2-yl}-propyl ester] | > 0.05
Cc1cccc(/C=N/Nc2cc(N3CCOCC3)nc(CCCOC(=O)Nc3ccc(Oc4ccccc4)cc3)n2)c1 [Compound 11, (4-Phenoxy-phenyl)-carbamic acid 3-{4-[N′-(3-methyl-benzylidene)-hydrazino]-6-morpholin-4-yl-pyrimidin-2-yl}-propyl ester] | 0.025 to 0.05
Cc1ccc(NC(=O)OCCc2nc(N/N=C/c3cccc(C)c3)cc(N3CCOCC3)n2)cc1 [Compound 13, p-Tolyl-carbamic acid 2-{4-[N′-(3-methyl-benzylidene)-hydrazino]-6-morpholin-4-yl-pyrimidin-2-yl}-ethyl ester] | < 0.025
Cc1ccc(NC(=O)OCCCc2nc(N3CCOCC3)cc(N(C)/N=C/c3cccc(C)c3)n2)cc1 [Compound 14, p-Tolyl-carbamic acid 3-{4-[N-methyl-N′-(3-methyl-benzylidene)-hydrazino]-6-morpholin-4-yl-pyrimidin-2-yl}-propyl ester] | < 0.025
Cc1cccc(/C=N/Nc2cc(N3CCOCC3)nc(CCOC(=O)Nc3ccc([N+](=O)[O-])cc3)n2)c1 [Compound 15, (4-Nitro-phenyl)-carbamic acid 2-{4-[N′-(3-methyl-benzylidene)-hydrazino]-6-morpholin-4-yl-pyrimidin-2-yl}-ethyl ester] | < 0.025
Cc1ccc(NC(=O)OC(C)(C)Cc2nc(N/N=C/c3cccc(C)c3)cc(N3CCOCC3)n2)cc1 [Compound 16, p-Tolyl-carbamic acid 1,1-dimethyl-2-{4-[N′-(3-methyl-benzylidene)-hydrazino]-6-morpholin-4-yl-pyrimidin-2-yl}-ethyl ester] | < 0.025
CCNC(=O)OCCc1nc(N/N=C/c2cccc(C)c2)cc(N2CCOCC2)n1 [Compound 17, Ethyl-carbamic acid 2-{4-[N′-(3-methyl-benzylidene)-hydrazino]-6-morpholin-4-yl-pyrimidin-2-yl}-ethyl ester] | < 0.025
Cc1cccc(/C=N/Nc2cc(N3CCOCC3)nc(CCSc3nnnn3CCN(C)C)n2)c1 [Compound 18, Dimethyl-{2-[5-(2-{4-[N′-(3-methyl-benzylidene)-hydrazino]-6-morpholin-4-yl-pyrimidin-2-yl}-ethylsulfanyl)-tetrazol-1-yl]-ethyl}-amine] | < 0.025
Cc1ccc(NC(=O)OCCOc2nc(N/N=C/c3cccc(C)c3)cc(N3CCOCC3)n2)cc1 [Compound 19, p-Tolyl-carbamic acid 2-{4-[N′-(3-methyl-benzylidene)-hydrazino]-6-morpholin-4-yl-pyrimidin-2-yloxy}-ethyl ester] | < 0.025
Cc1cccc(/C=N/Nc2cc(N3CCOCC3)nc(CCOC(=O)Nc3ccc(C(C)C)cc3)n2)c1 [Compound 20, (4-Isopropyl-phenyl)-carbamic acid 2-{4-[N′-(3-methyl-benzylidene)-hydrazino]-6-morpholin-4-yl-pyrimidin-2-yl}-ethyl ester] | > 0.05
Cc1cccc(/C=N/Nc2cc(N3CCOCC3)nc(CCOC(=O)Nc3ccc(Cl)cc3)n2)c1 [Compound 21, (4-Chloro-phenyl)-carbamic acid 2-{4-[N′-(3-methyl-benzylidene)-hydrazino]-6-morpholin-4-yl-pyrimidin-2-yl}-ethyl ester] | 0.025 to 0.05
Cc1cccc(/C=N/Nc2cc(N3CCOCC3)nc(CCOC(=O)Nc3ccc(C#N)cc3)n2)c1 [Compound 22, (4-Cyano-phenyl)-carbamic acid 2-{4-[N′-(3-methyl-benzylidene)-hydrazino]-6-morpholin-4-yl-pyrimidin-2-yl}-ethyl ester] | < 0.025
COC(=O)c1ccc(NC(=O)OCCc2nc(N/N=C/c3cccc(C)c3)cc(N3CCOCC3)n2)cc1 [Compound 23, 4-(2-{4-[N′-(3-Methyl-benzylidene)-hydrazino]-6-morpholin-4-yl-pyrimidin-2-yl}-ethoxycarbonylamino)-benzoic acid methyl ester] | < 0.025
Cc1cccc(/C=N/Nc2cc(N3CCOCC3)nc(CCOC(=O)Nc3ccccc3)n2)c1 [Compound 24, Phenyl-carbamic acid 2-{4-[N′-(3-methyl-benzylidene)-hydrazino]-6-morpholin-4-yl-pyrimidin-2-yl}-ethyl ester] | < 0.025
Cc1cccc(/C=N/Nc2cc(N3CCOCC3)nc(CCSc3nnc(-c4ccncc4)[nH]3)n2)c1 [Compound 25, N-(3-Methyl-benzylidene)-N′-{6-morpholin-4-yl-2-[2-(5-pyridin-4-yl-4H-[1,2,4]triazol-3-ylsulfanyl)-ethyl]-pyrimidin-4-yl}-hydrazine] | < 0.025
Cc1cccc(/C=N/Nc2cc(N3CCOCC3)nc(CCC(C)(C)OC(=O)Nc3cccc(C)c3)n2)c1 [Compound 26, m-Tolyl-carbamic acid 1,1-dimethyl-3-{4-[N′-(3-methyl-benzylidene)-hydrazino]-6-morpholin-4-yl-pyrimidin-2-yl}-propyl ester] | 0.025 to 0.05
Cc1cccc(/C=N/Nc2cc(N3CCOCC3)nc(CCC(C)(C)OC(=O)Nc3cccc(C(F)(F)F)c3)n2)c1 [Compound 27, (3-Trifluoromethyl-phenyl)-carbamic acid 1,1-dimethyl-3-{4-[N′-(3-methyl-benzylidene)-hydrazino]-6-morpholin-4-yl-pyrimidin-2-yl}-propyl ester] | > 0.05
